Data taken from PubChem BioAssay (NCI).
Values joined by “and” are separate entries in the source; they are usually repeats but may differ in a detail not shown here. Identical values can stand only once.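 Values below derive from 48-hour exposures of cells grown in 96-well plates, with endpoints linearly interpolated between the two concentrations bracketing the appropriate inhibition level. At the GI50, growth is halved. TGI: concentration producing complete growth inhibition.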

Columns and labels:
Experiment in all cases: DTP human tumour cell line panel, 48 h
CCRF-CEM leukemia = test system: CCRF-CEM leukemia
SNB-75 CNS = test system: SNB-75 CNS
A498 renal = test system: A498 renal
EKVX NSCLC = test system: EKVX NSCLC
LOX IMVI melanoma = test system: LOX IMVI melanoma
MALME-3M melanoma = test system: MALME-3M melanoma
HT29 colon = test system: HT29 colon
MOLT-4 leukemia = test system: MOLT-4 leukemia
UO-31 renal = test system: UO-31 renal
DU-145 prostate = test system: DU-145 prostate

SMILES | TGI (CCRF-CEM leukemia) | TGI (SNB-75 CNS) [µM] | TGI (A498 renal) | TGI (EKVX NSCLC) | TGI (LOX IMVI melanoma) | TGI (MALME-3M melanoma) | TGI (HT29 colon) | TGI (MOLT-4 leukemia) [µM] | TGI (UO-31 renal) | GI50 (CCRF-CEM leukemia) | GI50 (SNB-75 CNS) [µM] | GI50 (A498 renal) [µM] | GI50 (EKVX NSCLC) [µM] | GI50 (LOX IMVI melanoma) [µM] | GI50 (HT29 colon) | GI50 (MOLT-4 leukemia) [µM] | GI50 (DU-145 prostate) [µM] | TGI (DU-145 prostate) [µM] | GI50 (UO-31 renal) [µM] | GI50 (MALME-3M melanoma)
CC(C)(C)[Si](Nc1ccccc1)(c1ccccc1)c1ccccc1 | 39.7 µM | 24.5 | 31.3 µM | 30.3 µM | 26.1 µM | 41.8 µM | 28.7 µM | 26.2 | 18.5 µM | – | – | – | – | – | – | – | – | – | – | –
CC1CCC(C#N)(NOC2=NCCN2)CC1 (stereo unspecified) | > 100 µM | > 100 | > 100 µM | > 100 µM | 20.2 µM | – | > 100 µM | > 100 | > 100 µM | 56 µM | > 100 | 40.5 | 36.1 | 5.33 | > 100 µM | 37.3 | 39.9 | > 100 | 11.6 | –
CN(C)C(=S)/N=c1\ssc(=S)n1Cc1ccccn1 | > 26.2 µM | > 56.6 | > 81.4 µM | > 100 µM | > 100 µM | 22.7 µM | > 100 µM | > 100 | > 100 µM | – | – | – | – | – | – | – | – | – | – | –
COc1cc(CCC(=O)NS(=O)(=O)c2ccccc2)cc(OC)c1OC | > 100 µM | > 100 | > 100 µM | > 100 µM | > 100 µM | > 100 µM | > 100 µM | > 100 | > 100 µM | – | – | – | – | – | – | – | – | – | – | –
O=C(Cc1ccccc1)NN1C(=O)C(Cl)C1c1ccccc1 (stereo unspecified) | 71.4 µM | > 100 | – | > 100 µM | – | > 100 µM | > 100 µM | 81.8 | > 100 µM | – | – | – | – | – | – | – | – | – | – | –
CCCCCCCCCCCCCCCCCCOCC1(COP(=O)([O-])OCC[N+](C)(C)C)CCCO1 (stereo unspecified) | 11.6 µM | 18.3 | 11.8 µM | – | 19.3 µM | 26.2 µM | 12.4 µM | 4.84 | 21.9 µM | – | – | – | – | – | – | – | – | – | – | –
COC(=O)C1CCC(N2C(=O)CCC2C(=O)OC)=N1 (stereo unspecified) | > 100 µM | > 100 | > 100 µM | > 100 µM | > 100 µM | > 100 µM | > 100 µM | > 100 | > 100 µM | – | – | – | – | – | – | – | – | – | – | –
Cc1cccc(NC(=O)Cc2nc3ccccc3s2)c1C | > 100 µM | > 100 | > 100 µM | > 100 µM | > 100 µM | > 100 µM | > 100 µM | > 100 | > 100 µM | – | – | – | – | – | – | – | – | – | – | –
O=C(Cc1nc2ccccc2s1)C(=O)Nc1ccc(Cl)cc1Cl | – | > 100 | – | – | > 100 µM | > 100 µM | > 100 µM | > 100 | > 100 µM | – | – | – | – | – | – | – | – | – | – | –
C=C(C)C(=O)N1c2ccc(OC)cc2CC1C(=O)OCC (stereo unspecified) | > 100 µM | > 100 | > 100 µM | > 100 µM | – | – | > 100 µM | > 100 | > 100 µM | – | – | – | – | – | – | – | – | > 100 | – | –
O=C(O)C1=C(Cl)c2ccccc2S1(=O)=O | > 100 µM | > 100 | – | > 100 µM | > 100 µM | > 100 µM | – | > 100 | > 100 µM | – | – | – | – | – | – | – | – | – | – | –
CCCCCCCCCCCCOC(=S)NC | > 100 µM | 74.6 | 41.5 µM | 36.7 µM | 27.4 µM | 39.6 µM | 33.1 µM | 32.1 | 43.7 µM | – | – | – | – | – | – | – | – | – | – | –
CSc1ccc(C(=O)/C=C/c2ccc(F)cc2)cc1 | 82.6 µM | > 100 | 95.5 µM | > 100 µM | 83.4 µM | – | > 100 µM | 94.4 | > 100 µM | 25.5 µM | 7.05 | 26.7 | > 100 | 29.1 | 19.5 µM | 33.9 | 54.8 | > 100 | > 100 | –
O/N=C1/C(=C/c2ccc(Cl)cc2)CCCC1C(NO)c1ccc(Cl)cc1 (stereo unspecified) | 42.6 µM | 39.5 | 38.9 µM | 74.8 µM | – | 64.6 µM | 36.6 µM | 37.2 | 63.4 µM | – | – | – | – | – | – | – | – | – | – | –
COc1ccc2nc(C3=CN(C4OC(CO)C(O)C(O)C4O)C4C=CC=CC34)sc2c1 (stereo unspecified) | > 100 µM | > 100 | – | > 100 µM | 56.6 µM | – | > 100 µM | 90.8 | > 100 µM | 42.4 µM | 55 | – | 39.7 | 19.4 | 59.9 µM | 21.9 | 38.8 | > 100 | 41.1 | –
C/C(CC(=O)Nc1ccc(NC(=O)/C(C)=N/NS(=O)(=O)c2ccc(C)cc2)cc1)=N\NS(=O)(=O)c1ccc(C)cc1 | – | > 100 | > 100 µM | > 100 µM | > 100 µM | > 100 µM | > 100 µM | > 100 | > 100 µM | – | – | – | – | – | – | – | – | – | – | –
C=C(CN(CCN1CCOCC1)CC(=C)c1ccc(C(=O)Nc2ccccc2N)cc1)c1ccc(C(=O)Nc2ccccc2N)cc1 | – | – | – | > 50 µM | 6.47 µM | – | – | – | 11.4 µM | – | – | – | 14 | 1.07 | – | – | 6.88 | 15.7 | 5.2 | –
COc1cc(C(=C2SCCS2)c2nccc3cc(OC)c(OC)cc23)c([N+](=O)[O-])cc1OC | > 100 µM | > 100 | > 100 µM | > 100 µM | > 100 µM | > 100 µM | > 100 µM | > 100 | > 100 µM | – | – | – | – | – | – | – | – | – | – | –
CO[C@@]12[C@H](COC(N)=O)C3=C(C(=O)C(C)=C(N)C3=O)N1C[C@@H]1N[C@@H]12 | 13.2 µM and 1.96 µM and 18.6 µM | – | 2.68 µM and 2.64 µM | 17.1 µM and 20.8 µM and 31.7 µM | 4.26 µM and 3.47 µM | 4.06 µM and 6.53 µM and 4.03 µM | 12.3 µM and 13 µM and 23.7 µM | – | 6.88 µM and 0.959 µM | 0.126 µM and 0.0625 µM | – | 1.05 | 7.98 | 0.615 | 1.45 µM and 0.542 µM | 0.271 | – | – | – | 2.26 µM and 1.38 µM
CN(C)NC(=S)NC12CC3CC(CC(C3)C1)C2 | > 100 µM | > 100 | > 100 µM | > 100 µM | > 100 µM | > 100 µM | > 100 µM | > 100 | > 100 µM | – | – | – | – | – | – | – | – | – | – | –
O/N=C1/C(=C/c2ccccc2)CCCC1C(NO)c1ccccc1 (stereo unspecified) | – | > 100 | > 100 µM | > 100 µM | > 100 µM | > 100 µM | > 100 µM | 90.8 | > 100 µM | – | – | – | – | – | – | – | – | – | – | –
